Source: patent US20230416203A1, “POTENT AND SELECTIVE INHIBITORS OF THE CALCIUM-ACTIVATED POTASSIUM CHANNEL, KCA3.1, FOR USE AS PLATFORM THERAPEUTICS” (priority 2020, published 2023)
Entries after “also recorded” stand apart in the source; their conditions may differ.

Columns and labels:
[1] = Plasma protein binding assay (equilibrium dialysis), mouse plasma; assay type: in vitro ADME; details: pH 7.4
Procedure: Human and mouse plasma (150 μL) containing test compound (3 μM, final concentration) and sodium phosphate buffer (150 μL, 100 mM, pH 7.4) were added to the equilibrium dialysis device and equilibrated at 37° C. for 4.5 h with constant shaking. After equilibration, 10 μL of the plasma was taken out from the first half of the well and mixed with 50 μL of blank buffer, and later quenched with 200 μL of 0.05% formic acid in ACN containing 100 ng/mL of Loperamide, Phenacetin & Tolbutamide as internal standards. Similarly, 50 μL of […] was taken from the second half of the well and mixed with 10 μL of blank […] before quenching. […] All samples were centrifuged at 14,000 rpm for 5 min at 4° C. Warfarin and naltrexone were used as positive controls. Supernatant of all samples were analyzed by LC-MS/MS.

[2] = Plasma and brain distribution studies
Procedure: The dosing volume for intraperitoneal administration was 5 mL/kg. Following blood collection, the animals were sacrificed, and their abdominal vena-cava were cut open and whole body were perfused from heart using 10 mL normal saline. The brain samples were collected from a set of three mice at 0.08, 0.25, 0.5, 1, 2, 4, 8 and 10 h. After isolation, the brain samples were rinsed thrice in ice cold normal saline (for 5-10 s/rinse using ˜10-20 mL normal saline in disposable petri dish for each rinse) and dried on blotting paper. The brain samples were homogenized using ice-cold phosphate buffer saline (pH=7.4). The total homogenate volume was three times the tissue weight. All homogenates were stored below −70° C. until bioanalysis. […] Non-Compartmental-Analysis tool of Phoenix WinNonlin® (Version 8.0) was used to assess the pharmacokinetic parameters.

[3] = tested on: middle cerebral artery occlusion (MCAO); assay: Neurological behavioral evaluation in MCAO model (18-point system); assay type: in vivo, SD male rats; details: 48 h and day 7, rat MCAO, vs Edaravone
Text: The animals were individually assessed based on the scoring method described in Table 18.

[4] = male, C57BL/6, mouse, brain, ip, 50 mg/kg
[5] = male, C57BL/6, mouse, plasma, ip, 50 mg/kg

| SMILES | fraction unbound at 4.5 h, 3 μM [1] | AUClast ([2]; Brain, IP 50 mg/kg, mice) [ng·h/g] | Cmax [2, 4] [ng/g] | MRT last [2, 4] [h] | Tmax [2, 4] [h] | half-life [2, 4] [h] | AUC(0-t) [2, 5] [ng·h/mL] | Cmax [2, 5] [ng/mL] | MRT last [2, 5] [h] | Tmax [2, 5] [h] | half-life [2, 5] [h] | neurological behavioral scores [3] |
| --- | --- | --- | --- | --- | --- | --- | --- | --- | --- | --- | --- | --- |
| COC(=O)C1=C(C)NC(C)=C(C(=O)OC)C1c1ccc(F)c(C(F)(F)F)c1 [Compound 101] | 0.0088 |  |  |  |  |  |  |  |  |  |  |  |
| COC(=O)C1=CNC=C(C(=O)OC)C1c1ccc(F)c(C(F)(F)F)c1 [Compound 103, Dimethyl 4-(4-fluoro-3-(trifluoromethyl)phenyl)-1,4-dihydropyridine-3,5-dicarboxylate] |  | 88658.12 | 26800 | 2.09 | 0.25 | 1.06 | 20000 | 8540 | 2.02 | 0.25 | 1.63 | improves neurological behavior scores more effectively than Edaravone; also recorded: improved neurological behavioral scores |
